# In patent US20050153894A1, “p21 peptides” (Cyclacel Limited, priority 1999, published 2005):
# Square brackets hold non-standard residues; d marks the D form. Phe(4-F) = N[C@@H](Cc1ccc(F)cc1)C(=O)O; Cit = NC(=O)NCCC[C@H](N)C(=O)O; dPsa = O-acetyl-D-phenylserine; Psa = O-acetylphenylserine; Abu = CC[C@H](N)C(=O)O
# How the values were obtained:
# Format in all cases: biochemical
# [1] = molecular target: CDK2/cyclin A (Homo sapiens, UniProt P20248); assay: CDK2/cyclin A kinase assay, substrate pRb(773-928); details: for Relative activity Kinase Inhibition: pRb substrate, [ATP] = 100 μM
# Source text: Reactions were stopped on ice, followed by filtration through p81 filterplates (Whatman Polyfiltronics, Kent, UK).
# [2] = molecular target: T1, CDK2/Cyclin E (Homo sapiens, UniProt P24864); assay: CDK2/Cyclin E kinase assay, phosphorylation of GST-Rb; details: for Kinase Inhibition Cyclin E/CDK2 % Inhibition / Kinase Inhibition Cyclin E/CDK2 IC30: GST-pRb substrate, [ATP] = 100 μM
# T1 construct: 6xHis; made in house; host or cells: Sf9 insect cells (baculovirus co-expression)
# Description: (§1) The phosphorylation reaction mixture (total volume 40 μl) consisted of 50 mM HEPES pH 7.4, 20 mM MgCl2, 5 mM EGTA, 2 mM DTT, 20 mM β-glycerophosphate, 2 mM NaF, 1 mM Na3VO4, Protease Inhibitors Cocktail (Sigma, see above), BSA 0.5 mg/ml, 1 μg purified enzyme complex, 10 μl of GST-Rb-Sepharose beads, 100 μM ATP, 0.2 μCi ^32P-ATP. The reaction was carried out for 30 min at 30° C. at constant shaking. At the end of this period 100 μl of 50 mM HEPES, pH 7.4 and 1 mM ATP were added to each well and the total volume was transferred onto GFC filtered plate. The plate was washed 5 times with 200 μl of 50 mM HEPES, pH 7.4 and 1 mM ATP. To each well were added 50 μl scintillant liquid and the radioactivity of the samples was measured on Scintilation counter (Topcount, HP). The IC50 values of different peptides were calculated using GraFit software.
# [3] = molecular target: T2, CDK4/Cyclin D1 (Homo sapiens, UniProt P24385); assay: CDK4/Cyclin D1 kinase assay, phosphorylation of GST-Rb; details: for Kinase Inhibition Cyclin D1/CDK4 % Inhibition / Kinase Inhibition Cyclin D1/CDK4 IC30: GST-pRb substrate, [ATP] = 100 μM
# T2 construct: made in house; host or cells: CDK4: Sf9 insect cells (baculovirus)
# Description: as §1
# Peptides were synthesized as described above. Cyclin D1 was expressed in E coli BL21(DE3) using PET expression vector and purified from the inclusion bodies. After refolding Cyclin D1 was cross-linked on SulfoLink agarose support (PIERCE). CDK4-6×His was expressed in Sf9 insect cells infected with the appropriate baculovirus construct and purified by metal-affinity chromatography (Quiagen). […] CDK4/Cyclin D1 phosphorilation of Rb was determined by incorporation of radio-labeled phosphate in GST-Rb in 96-well format kinase assay. […] The reaction was carried out for 30 min at 30 C at constant shaking. The GST-Rb-Sepharose beads were washed with 50 mM HEPES and 1 mM ATP and the radioactivity was measured on Scintillation counter (Topcount, HP)
# [4] = multiple substitutions (Example 22), relative to SEQ ID No. 36 = 1, CDK2/cyclin A kinase assay
# [5] = Arg156 substitutions, relative to H-His-Ala-Lys-Arg-Arg-Leu-Ile-Phe-NH2 (=1)
# [6] = relative to H-His-Ala-Lys-Arg-Arg-Leu-Ile-Phe-NH2 (SEQ ID No. 36) = 1, CDK2/cyclin A kinase assay
# T2 sequence (P24385 whole entry): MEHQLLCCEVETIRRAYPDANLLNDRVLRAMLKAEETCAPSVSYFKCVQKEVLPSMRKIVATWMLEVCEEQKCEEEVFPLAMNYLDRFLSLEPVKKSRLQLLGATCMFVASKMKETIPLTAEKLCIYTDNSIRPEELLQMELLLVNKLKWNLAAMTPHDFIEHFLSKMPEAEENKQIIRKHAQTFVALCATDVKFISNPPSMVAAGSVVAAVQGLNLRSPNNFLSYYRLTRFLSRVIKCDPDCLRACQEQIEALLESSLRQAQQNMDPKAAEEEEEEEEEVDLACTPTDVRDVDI
# T2 sequence (P11802 whole entry partner): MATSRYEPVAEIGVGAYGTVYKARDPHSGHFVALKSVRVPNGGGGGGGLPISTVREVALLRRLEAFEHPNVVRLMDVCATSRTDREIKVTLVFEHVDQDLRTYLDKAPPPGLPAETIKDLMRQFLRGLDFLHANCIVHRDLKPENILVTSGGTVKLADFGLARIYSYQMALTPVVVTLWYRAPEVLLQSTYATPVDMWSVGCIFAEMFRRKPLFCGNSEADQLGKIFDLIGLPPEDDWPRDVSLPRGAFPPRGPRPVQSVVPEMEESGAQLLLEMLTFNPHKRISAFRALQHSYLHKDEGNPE
Substance,Kinase Inhibition Cyclin E/CDK2 % Inhibition [2] [%],Kinase Inhibition Cyclin D1/CDK4 % Inhibition [3] [%],other results
122 (H-AA[Abu]RRLI[Phe(4-F)]-NH2; SMILES CC[C@H](NC(=O)[C@H](C)NC(=O)[C@H](C)N)C(=O)N[C@@H](CCCNC(=N)N)C(=O)N[C@@H](CCCNC(=N)N)C(=O)N[C@@H](CC(C)C)C(=O)N[C@H](C(=O)N[C@@H](Cc1ccc(F)cc1)C(N)=O)[C@@H](C)CC) [compound 122],–,–,"Relative activity Kinase Inhibition [1, 4]: 60"
SKRRLIFSKRKP,70,40,Kinase Inhibition Cyclin E/CDK2 IC30 [2]: 46 ± 33 µM
YHSKRRLIFSKR,80,60,Kinase Inhibition Cyclin D1/CDK4 IC30 [3]: 45 ± 10 µM
YHSKRRL,30,10,Kinase Inhibition Cyclin E/CDK2 IC30 [2]: >200 µM
H-His-Ala-Lys-Arg-Sar-Leu-Ile Phe-NH2,–,–,"Relative activity Kinase Inhibition [1, 5]: <0.1"
DFYHSARRLIFS,80,50,Kinase Inhibition Cyclin E/CDK2 IC30 [2]: 12.9 ± 2.4 µM; Kinase Inhibition Cyclin D1/CDK4 IC30 [3]: 200 µM
HSKRRLIFSKRK,90,80,Kinase Inhibition Cyclin D1/CDK4 IC30 [3]: 34 ± 6 µM
127 (H-AAKQRLI[Phe(4-F)]-NH2; SMILES CC[C@H](C)[C@H](NC(=O)[C@H](CC(C)C)NC(=O)[C@H](CCCNC(=N)N)NC(=O)[C@H](CCC(N)=O)NC(=O)[C@H](CCCCN)NC(=O)[C@H](C)NC(=O)[C@H](C)N)C(=O)N[C@@H](Cc1ccc(F)cc1)C(N)=O) [compound 127],–,–,"Relative activity Kinase Inhibition [1, 4]: 4"
DFYHSKRALIFS,70,30,Kinase Inhibition Cyclin E/CDK2 IC30 [2]: 30 ± 8 µM
126 (H-AA[Abu]RSLI[Phe(4-F)]-NH2; SMILES CC[C@H](NC(=O)[C@H](C)NC(=O)[C@H](C)N)C(=O)N[C@@H](CCCNC(=N)N)C(=O)N[C@@H](CO)C(=O)N[C@@H](CC(C)C)C(=O)N[C@H](C(=O)N[C@@H](Cc1ccc(F)cc1)C(N)=O)[C@@H](C)CC) [compound 126],–,–,"Relative activity Kinase Inhibition [1, 4]: 14"
HSKRRLIFS,80,65,Kinase Inhibition Cyclin D1/CDK4 IC30 [3]: 32 ± 6 µM
FYHSKRR,45,20,Kinase Inhibition Cyclin E/CDK2 IC30 [2]: >200 µM
TDFYHSKRRLIF [p21(148-159)],–,–,"inhibition of CDK2/Cyclin E phosphorylation of GST-Rb, in words [2]: active; inhibition of CDK4/Cyclin D1 phosphorylation of GST-Rb, in words [3]: active"
HSKRRLI (H-HSKRRLI-NH2),35,10,–
125 (H-AAKRRLA[Phe(4-F)]-NH2; SMILES CC(C)C[C@H](NC(=O)[C@H](CCCNC(=N)N)NC(=O)[C@H](CCCNC(=N)N)NC(=O)[C@H](CCCCN)NC(=O)[C@H](C)NC(=O)[C@H](C)N)C(=O)N[C@@H](C)C(=O)N[C@@H](Cc1ccc(F)cc1)C(N)=O) [compound 125],–,–,"Relative activity Kinase Inhibition [1, 4]: 20"
DFYHSKRR (H-DFYHSKRR-NH2),40,10,–
DFYHSKRRLAFS,80,61,Kinase Inhibition Cyclin E/CDK2 IC30 [2]: 14 ± 3 µM; Kinase Inhibition Cyclin D1/CDK4 IC30 [3]: 53 ± 20 µM
123 (H-AAKRRLI[Phe(4-F)]-NH2; SMILES CC[C@H](C)[C@H](NC(=O)[C@H](CC(C)C)NC(=O)[C@H](CCCNC(=N)N)NC(=O)[C@H](CCCNC(=N)N)NC(=O)[C@H](CCCCN)NC(=O)[C@H](C)NC(=O)[C@H](C)N)C(=O)N[C@@H](Cc1ccc(F)cc1)C(N)=O) [compound 123],–,–,"Relative activity Kinase Inhibition [1, 4]: 80"
TSMTDFYHSKRR (H-TSMTDFYHSKRR-NH2),35,30,–

Substance,Kinase Inhibition Cyclin E/CDK2 % Inhibition [2] [%],Kinase Inhibition Cyclin D1/CDK4 % Inhibition [3] [%],other results
H-His-Ala-Lys-Arg-Aib-Leu-Ile Phe-NH2,–,–,"Relative activity Kinase Inhibition [1, 5]: <0.1"
114 (H-HAKRRLI[Psa]-OH) [compound 114],–,–,"Relative activity Kinase Inhibition [1, 6]: 22"
YHSKRRLI,45,15,Kinase Inhibition Cyclin E/CDK2 IC30 [2]: >200 µM
DFYHSK,45,10,Kinase Inhibition Cyclin E/CDK2 IC30 [2]: 200 µM
DFYHSKARLIFS (H-DFYHSKARLIFS-NH2),25,30,–
TDFYHSKRRLIF,85,72,Kinase Inhibition Cyclin D1/CDK4 IC30 [3]: 15 ± 3 µM
FYHSKRRL,48,20,Kinase Inhibition Cyclin E/CDK2 IC30 [2]: >200 µM
SMTDFYHSKRRL (H-SMTDFYHSKRRL-NH2),40,18,–
DFYHSKRRLI (H-DFYHSKRRLI-NH2),35,20,–
FYHSKRRLIF,80,70,Kinase Inhibition Cyclin D1/CDK4 IC30 [3]: 19 ± 3 µM
MTDFYHSKRRLI (H-MTDFYHSKRRLI-NH2),35,11,–
115 (H-HAKRRLI[dPsa]-OH) [compound 115],–,–,"Relative activity Kinase Inhibition [1, 6]: <0.1"
116 (H-HSKRRLI[Psa]-OH) [compound 116],–,–,"Relative activity Kinase Inhibition [1, 6]: <0.1"
117 (H-HSKRRLI[dPsa]-OH) [compound 117],–,–,"Relative activity Kinase Inhibition [1, 6]: <0.1"
HSKRRL,45,–,Kinase Inhibition Cyclin E/CDK2 IC30 [2]: >200 µM
124 (H-AAKR[Cit]LI[Phe(4-F)]-NH2; SMILES CC[C@H](C)[C@H](NC(=O)[C@H](CC(C)C)NC(=O)[C@H](CCCNC(N)=O)NC(=O)[C@H](CCCNC(=N)N)NC(=O)[C@H](CCCCN)NC(=O)[C@H](C)NC(=O)[C@H](C)N)C(=O)N[C@@H](Cc1ccc(F)cc1)C(N)=O) [compound 124],–,–,"Relative activity Kinase Inhibition [1, 4]: 10"
H-His-Ala-Lys-Arg-Arg-Leu-Ile-[L-Psa]-OH (H-HAKRRLI[Psa]-OH),–,–,"inhibition of CDK2/cyclin A (pRb phosphorylation), in words ([1]; b370: CDK2/cyclin A inhibition and/or cyclin A binding): particularly potent"
DFYHSKR,50,–,Kinase Inhibition Cyclin E/CDK2 IC30 [2]: 200 µM
